We go through 17 compounds from ChEMBL document CHEMBL4680312 (Bioorg Med Chem, 2021).

Holding throughout (assay type): cell-based
The target in assay [1] is T1, Histamine H4 receptor (Homo sapiens, UniProt Q9H3N8). Nature of the assay: Antagonist activity at human histamine 4 receptor transfected in human HEK293T cells assessed as reduction in histamine-induced activity at 10 uM incubated for 30 mins followed by histamine stimulation and measured immediately by BRET assay. The conditions noted are these: filed as antagonist.

Assay [2] addresses T1, Histamine H4 receptor. Nature of the assay: Displacement of [3H]-Histamine from human histamine 4 receptor transfected in HEK293T cells incubated for 16 hrs by liquid scintillation counter analysis. In general terms: Displacement assays read how much labelled ligand stays bound in the presence of the test substance.
Assay [3] concerns the target T2, Histamine H3 receptor (Homo sapiens, UniProt Q9Y5N1). Description: Displacement of [3H]-Histamine from human histamine 3 receptor transfected in HEK293T cells incubated for 16 hrs by liquid scintillation counter analysis.
In assay [4] the target is T1, Histamine H4 receptor. Description: Activation of human histamine 4 receptor transfected in human HEK293T cells measured after 5 mins by BRET assay. The conditions noted are these: filed as partial agonist, dose 0.01-10 µM. For orientation: Bioluminescence resonance energy transfer reports proximity on the nanometre scale.
Assay [5] concerns the target T2, Histamine H3 receptor. Description: Activation of human histamine 3 receptor transfected in human HEK293T cells at 10 uM measured after 5 mins by BRET assay.
Assay [6] deals with T2, Histamine H3 receptor. Description: Antagonist activity at human histamine 3 receptor transfected in human HEK293T cells assessed as reduction in histamine-induced activity at 10 uM incubated for 30 mins followed by histamine stimulation and measured immediately by BRET assay.

Molecules are shown by their SMILES. Activity calls are given as the source filed them. The calls are words filed in the database; no cut-off is given here.

T1 sequence (Q9H3N8 whole entry): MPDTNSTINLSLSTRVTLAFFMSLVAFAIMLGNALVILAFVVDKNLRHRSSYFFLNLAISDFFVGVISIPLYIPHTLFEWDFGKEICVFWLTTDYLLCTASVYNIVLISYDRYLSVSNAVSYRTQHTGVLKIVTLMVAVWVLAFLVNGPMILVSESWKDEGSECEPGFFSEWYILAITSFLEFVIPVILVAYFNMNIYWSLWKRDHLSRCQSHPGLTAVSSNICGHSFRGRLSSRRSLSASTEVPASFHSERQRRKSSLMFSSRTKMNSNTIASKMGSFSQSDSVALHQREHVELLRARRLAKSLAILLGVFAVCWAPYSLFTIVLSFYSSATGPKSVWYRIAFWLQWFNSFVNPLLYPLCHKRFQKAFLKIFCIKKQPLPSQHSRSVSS
T2 sequence (Q9Y5N1 whole entry): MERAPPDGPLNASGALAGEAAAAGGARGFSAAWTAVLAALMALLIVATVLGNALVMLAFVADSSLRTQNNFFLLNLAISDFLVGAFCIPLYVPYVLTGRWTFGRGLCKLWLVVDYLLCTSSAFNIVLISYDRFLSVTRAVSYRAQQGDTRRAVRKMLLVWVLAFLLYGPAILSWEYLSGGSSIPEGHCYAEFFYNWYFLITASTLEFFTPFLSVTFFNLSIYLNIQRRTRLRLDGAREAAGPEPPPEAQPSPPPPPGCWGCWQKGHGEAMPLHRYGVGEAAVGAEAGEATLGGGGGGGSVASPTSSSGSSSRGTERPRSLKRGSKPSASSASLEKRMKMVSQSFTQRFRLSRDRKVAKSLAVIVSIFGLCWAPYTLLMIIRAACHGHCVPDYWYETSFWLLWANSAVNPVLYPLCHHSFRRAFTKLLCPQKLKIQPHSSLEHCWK

As for `CN1CCN(C(=O)c2nc3ccc(Cl)cc3[nH]2)CC1`, on Histamine H4 receptor [1], the result was Active.

Turning to `CN1CCN(Cc2ccc3c(c2)CCO3)CC1`, the Ki on Histamine H4 receptor [2] and at Histamine H3 receptor [3] was greater than 10 µM each time.

In the case of `CN1CCN(C(=O)c2cc3ccccc3o2)CC1`, the figures for the Ki on Histamine H4 receptor [2] and on Histamine H3 receptor [3] were 0.0794 µM and greater than 10 µM, respectively. The Activity entry at Histamine H4 receptor [4] is “Dose-dependent effect”. The outcome at Histamine H4 receptor [1] was Active.

Regarding `C=CCN1CCN(CC2Cc3ccccc3O2)CC1` (stereo unspecified), on Histamine H4 receptor [2], the Ki – broadly, the dissociation constant of the complex between target and ligand, obtained from inhibition or displacement – was greater than 10 µM.

Regarding `COc1ccc2c(c1)CC(CN1CCN(C)CC1)O2` (stereo unspecified), the Ki at Histamine H4 receptor [2] was greater than 10 µM; at Histamine H3 receptor [3], 0.794 µM.

In the case of `c1ccc(-c2ccc3c(c2)CC(CN2CCNCC2)O3)cc1` (stereo unspecified), the Ki at Histamine H4 receptor [2] was greater than 10 µM; on Histamine H3 receptor [3], 0.631 µM. Moreover, the outcome on Histamine H3 receptor [5] and on Histamine H3 receptor [6] was inactive.

On to `CN1CCN(CC2Cc3cc(Cl)ccc3O2)CC1` (stereo unspecified), for which the inhibition constant Ki at Histamine H4 receptor [2] and on Histamine H3 receptor [3] was 0.794 µM each time.

With `C=CCN1CCN(CC2Cc3cc(-c4ccccc4)ccc3O2)CC1` (stereo unspecified), the Ki was greater than 10 µM at Histamine H4 receptor [2] and 0.00398 µM on Histamine H3 receptor [3]. On Histamine H3 receptor [5], the outcome was inactive. On Histamine H3 receptor [6] (filed as antagonist), the result was Active.

As for `CN1CCN(Cc2cc3ccccc3o2)CC1`, the Ki on Histamine H4 receptor [2] and on Histamine H3 receptor [3] was greater than 10 µM in each case.

Take `C=CCN1CCN(CC2Cc3cc(C(C)(C)C)ccc3O2)CC1` (stereo unspecified): the figures for the Ki on Histamine H4 receptor [2] and at Histamine H3 receptor [3] were greater than 10 µM and 0.0158 µM, respectively. For the same compound, on Histamine H3 receptor [5], the outcome was inactive. For the same compound, on Histamine H3 receptor [6] (filed as antagonist), the result was Active.

For the compound `CC(C)(C)c1ccc2c(c1)CC(CN1CCN(c3ccccc3)CC1)O2` (stereo unspecified), the inhibitory constant (Ki) on Histamine H4 receptor [2] and on Histamine H3 receptor [3] was greater than 10 µM in each case. Besides, the outcome on Histamine H3 receptor [5] and on Histamine H3 receptor [6] was inactive.

For the compound `c1ccc(CN2CCN(CC3Cc4ccccc4O3)CC2)cc1` (stereo unspecified), the Ki on Histamine H4 receptor [2] and at Histamine H3 receptor [3] was greater than 10 µM each time.

With `C=CCN1CCN(CC2Cc3cc(OC)ccc3O2)CC1` (stereo unspecified), the Ki on Histamine H4 receptor [2] is greater than 10 µM; on Histamine H3 receptor [3], 0.00631 µM. The result at Histamine H3 receptor [5] was inactive. Further, the result at Histamine H3 receptor [6] (filed as antagonist) was Active.

In the case of `O=C(c1cc2ccccc2o1)N1CCN(c2ccccc2)CC1`, the Ki on Histamine H4 receptor [2] and at Histamine H3 receptor [3] was greater than 10 µM in each case.

As to `CN1CCN(CC2Cc3cc(-c4ccccc4)ccc3O2)CC1` (stereo unspecified), the figures for the Ki at Histamine H4 receptor [2] and on Histamine H3 receptor [3] were greater than 10 µM and 0.0398 µM, respectively. In addition, at Histamine H3 receptor [5], the result was inactive. Moreover, the outcome on Histamine H3 receptor [6] (filed as antagonist) was Active.

Regarding `c1ccc(-c2ccc3c(c2)CC(CN2CCN(c4ccccc4)CC2)O3)cc1` (stereo unspecified), the Ki at Histamine H4 receptor [2] and at Histamine H3 receptor [3] was greater than 10 µM in each case.

`CN1CCN(CC2Cc3cc(C(C)(C)C)ccc3O2)CC1` (stereo unspecified): the Ki on Histamine H4 receptor [2] was greater than 10 µM; at Histamine H3 receptor [3] it was 0.794 µM.
